Laboratory results from PubChem BioAssay (NCI).
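Exposure lasted 48 hours, with cells grown in 96-well plates and compounds tested at five concentrations. TGI marks complete inhibition of growth.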

How the values were obtained:
Test in all cases: DTP human tumour cell line panel, 48 h
786-0 renal = system: 786-0 renal
A498 renal = system: A498 renal
A549 NSCLC = system: A549 NSCLC
ACHN renal = system: ACHN renal
CAKI-1 renal = system: CAKI-1 renal
CCRF-CEM leukemia = system: CCRF-CEM leukemia
COLO 205 colon = system: COLO 205 colon
DLD-1 colon = system: DLD-1 colon
DMS 273 small cell lung = system: DMS 273 small cell lung
EKVX NSCLC = system: EKVX NSCLC
HCC-2998 colon = system: HCC-2998 colon
HCT-116 colon = system: HCT-116 colon
HCT-15 colon = system: HCT-15 colon
HOP-18 NSCLC = system: HOP-18 NSCLC
HOP-62 NSCLC = system: HOP-62 NSCLC
HOP-92 NSCLC = system: HOP-92 NSCLC
HT29 colon = system: HT29 colon
IGROV1 ovarian = system: IGROV1 ovarian
K-562 leukemia = system: K-562 leukemia
KM12 colon = system: KM12 colon
KM20L2 colon = system: KM20L2 colon
LOX IMVI melanoma = system: LOX IMVI melanoma
LXFL 529 NSCLC = system: LXFL 529 NSCLC
M14 melanoma = system: M14 melanoma
M19-MEL melanoma = system: M19-MEL melanoma
MALME-3M melanoma = system: MALME-3M melanoma
MOLT-4 leukemia = system: MOLT-4 leukemia
NCI-H226 lung = system: NCI-H226 lung
NCI-H23 lung = system: NCI-H23 lung
NCI-H460 lung = system: NCI-H460 lung
NCI-H522 lung = system: NCI-H522 lung
OVCAR-3 ovarian = system: OVCAR-3 ovarian
OVCAR-4 ovarian = system: OVCAR-4 ovarian
OVCAR-5 ovarian = system: OVCAR-5 ovarian
OVCAR-8 ovarian = system: OVCAR-8 ovarian
RPMI-8226 leukemia = system: RPMI-8226 leukemia
RXF 393 renal = system: RXF 393 renal
RXF-631 renal = system: RXF-631 renal
SF-268 CNS = system: SF-268 CNS
SF-295 CNS = system: SF-295 CNS
SK-MEL-2 melanoma = system: SK-MEL-2 melanoma
SK-MEL-28 melanoma = system: SK-MEL-28 melanoma
SK-MEL-5 melanoma = system: SK-MEL-5 melanoma
SK-OV-3 ovarian = system: SK-OV-3 ovarian
SN12C renal = system: SN12C renal
SNB-19 CNS = system: SNB-19 CNS
SNB-75 CNS = system: SNB-75 CNS
SNB-78 CNS = system: SNB-78 CNS
SR leukemia = system: SR leukemia
SW-620 colon = system: SW-620 colon
TK-10 renal = system: TK-10 renal
U251 CNS = system: U251 CNS
UACC-257 melanoma = system: UACC-257 melanoma
UACC-62 melanoma = system: UACC-62 melanoma
UO-31 renal = system: UO-31 renal
DMS 114 small cell lung = system: DMS 114 small cell lung
HL-60(TB) leukemia = system: HL-60(TB) leukemia
SF-539 CNS = system: SF-539 CNS
XF 498 CNS = system: XF 498 CNS

Cc1ccc(S(=O)(=O)OCCOCCOCCOCCOCCOS(=O)(=O)c2ccc(C)cc2)cc1
TGI (786-0 renal): > 100 µM
TGI (A498 renal): > 100 µM
TGI (A549 NSCLC): > 100 µM
TGI (ACHN renal): > 100 µM
TGI (CAKI-1 renal): > 100 µM
TGI (CCRF-CEM leukemia): 66.4 µM
TGI (COLO 205 colon): 34.8 µM
TGI (DLD-1 colon): > 100 µM
TGI (DMS 273 small cell lung): > 100 µM
TGI (EKVX NSCLC): > 100 µM
TGI (HCC-2998 colon): > 100 µM
TGI (HCT-116 colon): > 100 µM
TGI (HCT-15 colon): > 100 µM
TGI (HOP-18 NSCLC): > 100 µM
TGI (HOP-62 NSCLC): > 100 µM
TGI (HOP-92 NSCLC): 99.3 µM
TGI (HT29 colon): > 100 µM
TGI (IGROV1 ovarian): > 100 µM
TGI (K-562 leukemia): > 100 µM
TGI (KM12 colon): > 100 µM
TGI (KM20L2 colon): > 100 µM
TGI (LOX IMVI melanoma): > 100 µM
TGI (LXFL 529 NSCLC): > 100 µM
TGI (M14 melanoma): > 100 µM
TGI (M19-MEL melanoma): > 100 µM
TGI (MALME-3M melanoma): > 100 µM
TGI (MOLT-4 leukemia): 41.4 µM
TGI (NCI-H226 lung): > 100 µM
TGI (NCI-H23 lung): > 100 µM
TGI (NCI-H460 lung): > 100 µM
TGI (NCI-H522 lung): > 100 µM
TGI (OVCAR-3 ovarian): > 100 µM
TGI (OVCAR-4 ovarian): > 100 µM
TGI (OVCAR-5 ovarian): > 100 µM
TGI (OVCAR-8 ovarian): 88 µM
TGI (RPMI-8226 leukemia): 92.7 µM
TGI (RXF 393 renal): > 100 µM
TGI (RXF-631 renal): 82.2 µM
TGI (SF-268 CNS): > 100 µM
TGI (SF-295 CNS): > 100 µM
TGI (SK-MEL-2 melanoma): > 100 µM
TGI (SK-MEL-28 melanoma): > 100 µM
TGI (SK-MEL-5 melanoma): 65 µM
TGI (SK-OV-3 ovarian): > 100 µM
TGI (SN12C renal): > 100 µM
TGI (SNB-19 CNS): > 100 µM
TGI (SNB-75 CNS): > 100 µM
TGI (SNB-78 CNS): > 100 µM
TGI (SR leukemia): 90.9 µM
TGI (SW-620 colon): > 100 µM
TGI (TK-10 renal): > 100 µM
TGI (U251 CNS): > 100 µM
TGI (UACC-257 melanoma): 77.8 µM
TGI (UACC-62 melanoma): > 100 µM
TGI (UO-31 renal): > 100 µM

CCOC(=O)C1SC(=Nc2ccc(Cl)cc2Cl)N=C1C (stereo not drawn)
TGI (786-0 renal): > 100 µM
TGI (A498 renal): > 100 µM
TGI (A549 NSCLC): > 100 µM
TGI (ACHN renal): > 100 µM
TGI (CAKI-1 renal): > 100 µM
TGI (COLO 205 colon): > 100 µM
TGI (DLD-1 colon): > 100 µM
TGI (DMS 114 small cell lung): > 100 µM
TGI (DMS 273 small cell lung): > 100 µM
TGI (EKVX NSCLC): > 100 µM
TGI (HCC-2998 colon): > 100 µM
TGI (HCT-116 colon): > 100 µM
TGI (HCT-15 colon): > 100 µM
TGI (HL-60(TB) leukemia): > 100 µM
TGI (HOP-18 NSCLC): > 100 µM
TGI (HOP-62 NSCLC): > 100 µM
TGI (HOP-92 NSCLC): 62.3 µM
TGI (HT29 colon): > 100 µM
TGI (IGROV1 ovarian): > 100 µM
TGI (K-562 leukemia): > 100 µM
TGI (KM12 colon): > 100 µM
TGI (KM20L2 colon): > 100 µM
TGI (LOX IMVI melanoma): > 100 µM
TGI (LXFL 529 NSCLC): > 100 µM
TGI (M14 melanoma): > 100 µM
TGI (M19-MEL melanoma): > 100 µM
TGI (MALME-3M melanoma): > 100 µM
TGI (NCI-H226 lung): > 100 µM
TGI (NCI-H23 lung): > 100 µM
TGI (NCI-H460 lung): > 100 µM
TGI (NCI-H522 lung): > 100 µM
TGI (OVCAR-3 ovarian): > 100 µM
TGI (OVCAR-4 ovarian): 70.1 µM
TGI (OVCAR-5 ovarian): > 100 µM
TGI (OVCAR-8 ovarian): > 100 µM
TGI (RXF 393 renal): > 100 µM
TGI (SF-268 CNS): > 100 µM
TGI (SF-295 CNS): > 100 µM
TGI (SF-539 CNS): > 100 µM
TGI (SK-MEL-2 melanoma): > 100 µM
TGI (SK-MEL-28 melanoma): > 100 µM
TGI (SK-MEL-5 melanoma): > 100 µM
TGI (SN12C renal): > 100 µM
TGI (SNB-19 CNS): > 100 µM
TGI (SNB-75 CNS): 82 µM
TGI (SNB-78 CNS): > 100 µM
TGI (SW-620 colon): > 100 µM
TGI (TK-10 renal): > 100 µM
TGI (U251 CNS): > 100 µM
TGI (UACC-257 melanoma): > 100 µM
TGI (UACC-62 melanoma): > 100 µM
TGI (UO-31 renal): > 100 µM
TGI (XF 498 CNS): 94.1 µM
